Like-named read-outs stand apart in the source and are kept apart here.
Experiments:
[1] = tested on: human peripheral blood lymphocytes; set-up: method as in ref IB; conditions: ref IB; cited from earlier work
[2] = tested on: patient-derived xenograft models of TNBC; set-up: method as in Bahl et al, 2017; conditions: ref Bahl et al, 2017; cited from earlier work
[3] = tested on: CYP1A2; set-up: method as in ref IB; conditions: human microsomes; ref IB; cited from earlier work
[4] = tested on: phosphorylated RNA polymerase II (pPolII); assay: Flow cytometry of pPolII in lymphocytes (PBMC preparations); type: in vivo, human; conditions: Module 1A, across all doses, Cycle 2 Day 1
Protocol: Per-protocol ctDNA samples were taken in Module 1B-1 at screening, C1D1, C2D1 and on D1 of alternating cycles from Cycle 3; in Module 2A at screening, C1D1 and at either C2D1 (240 mg) or C2D15 (360 mg) for mutational analysis[24],[33], (Supplementary Information). pPolII in lymphocytes and pPolII and pCDK1/2/3 in core needle tissue samples from patients recruited to the paired biopsy cohort were evaluated for on-target pharmacodynamic analyses. […]
with the sponsor. All investigator sites attended the SRC so that updates on toxicity and MTD could be communicated immediately. No more than 6 participants could be recruited at a non-tolerated dose […]
A summary of DLTs by cohort is provided in Supplementary Table 5. […]
Cells were analysed cells on a BD Fortessa X20, acquiring 100,000 events. […]
analysed using FlowJo (Treestar) version 10.4.2 to report the median fluorescence intensity of staining […]
although not reaching statistical significance due to the low number of patients. pPolII was determined by a flow cytometry assay on samples of peripheral blood mononuclear cell (PBMC) preparations […]
H-scores for pre-dose and on-study biopsies and summary statistics for the observed H-score when stained for pCDK1/2/3 and pPolII are shown in Supplementary Table 11. Significance was calculated using Student’s one-tailed paired t-test, where the alternative hypothesis was that on-study samples had […]

[5] = tested on: dogs; conditions: cited from earlier work; for AUC0-t: Dog, 20 mg/kg/day oral, ref IB
[6] = tested on: Han Wistar rats; conditions: rats 15 or 60 mg/kg/day and beagle dogs 20 mg/kg/day, 7 days; ref IB; cited from earlier work
[7] = clinical
Protocol: PK samples were taken in Module 1A, Module 1 B-1 and Module 2A (see schedule of assessments in Supplementary Information for timing of PK samples). PK parameters were derived using standard non-compartmental methods.
Samuraciclib pharmacokinetic (PK) analyses were performed using the PK Population (defined as all patients who received at least 1 dose of samuraciclib and who had at least 1 samuraciclib plasma concentration above the lower limit of quantification and no important AEs or protocol deviations or other event that could have impacted the PK analysis). PK parameters were derived using standard non-compartmental methods, with graphical presentations of PK data as appropriate. Samuraciclib plasma concentrations and derived PK parameters were summarized by dose level. Parameters following single and multiple dosing were summarized separately. Appropriate statistics were used to summarize plasma concentrations and PK parameters. […]

[8] = tested on: CYP2D6; set-up: method as in ref IB; conditions: human microsomes; ref IB; cited from earlier work
[9] = tested on: CYP2C19; set-up: method as in ref IB; conditions: human microsomes; ref IB; cited from earlier work
[10] = tested on: CYP3A5; set-up: method as in ref IB; conditions: human microsomes; ref IB; cited from earlier work

Structure (SMILES): CC(C)c1cnn2c(NCc3ccccc3)cc(NC[C@H]3CCNC[C@@H]3O)nc12 [samuraciclib, Samuraciclib]
- Genotoxicity in micronucleus tests [1]: Low potential for genotoxicity
- Activity in vivo [2]: encouraging activity
- Reduction of pPolII in lymphocytes [4]: approximately 30%
- AUC0-t ([5]; Female): 5010 ng·h/mL
- AUC0-t ([5]; Male): 3880 ng·h/mL
- Highest non-severely toxic dose (HNSTD) ([5]; dog, in vivo): 20 mg/kg/day
- Reticulocyte numbers [6]: significant decrease
- Apparent clearance ([7]; Module 1A): moderate to high
- Time to steady state ([7]; both, human, in vivo): 8 to 15 days
- Tmax ([7]; both, human, in vivo): 1.5 to 4 h
- half-life ([7]; both, human, in vivo): ~75 h
- half-life ([7]; both, human, in vivo, 180 mg): 54.8 to 82.3 h
- half-life ([7]; both, human, in vivo, 480 mg): 30 to 38 h
- Distribution ([7]; in vivo): extensively distributed
- Time dependence of PK ([7]; in vivo): time independent
- IC50 [10]: > 50 µM

Reference: article PMC10366102, “Dose escalation and expansion cohorts in patients with advanced breast cancer in a Phase I study of the CDK7-inhibitor samuraciclib” (Nature Communications, 2023)
